Results published in ChEMBL document CHEMBL3621121, “Modeling, synthesis and NMR characterization of novel chimera compounds targeting STAT3” (Medchemcomm, 2014).

Assays:
[1] = target: Signal transducer and activator of transcription 3 (Homo sapiens) (UniProt P40763); assay: Inhibition of STAT3 in human HCT116 cells at 10 uM after 24 hrs by firefly and renilla dual luciferase assay; assay type: cell-based; settings: HCT-116
[2] = target: Signal transducer and activator of transcription 3 (Homo sapiens) (UniProt P40763); assay: Inhibition of STAT3 in human HCT116 cells at 50 uM after 24 hrs by firefly and renilla dual luciferase assay; assay type: cell-based; settings: HCT-116
[3] = target: Signal transducer and activator of transcription 3 (Homo sapiens) (UniProt P40763); assay: Inhibition of SH2 domain of STAT3 (unknown origin) using (FITC)-GpYLPQTV after 90 mins by AlphaScreen bead-based nonradioactive assay

Sequence of Signal transducer and activator of transcription 3 (Homo sapiens) (P40763 whole entry, the tested form may be a part): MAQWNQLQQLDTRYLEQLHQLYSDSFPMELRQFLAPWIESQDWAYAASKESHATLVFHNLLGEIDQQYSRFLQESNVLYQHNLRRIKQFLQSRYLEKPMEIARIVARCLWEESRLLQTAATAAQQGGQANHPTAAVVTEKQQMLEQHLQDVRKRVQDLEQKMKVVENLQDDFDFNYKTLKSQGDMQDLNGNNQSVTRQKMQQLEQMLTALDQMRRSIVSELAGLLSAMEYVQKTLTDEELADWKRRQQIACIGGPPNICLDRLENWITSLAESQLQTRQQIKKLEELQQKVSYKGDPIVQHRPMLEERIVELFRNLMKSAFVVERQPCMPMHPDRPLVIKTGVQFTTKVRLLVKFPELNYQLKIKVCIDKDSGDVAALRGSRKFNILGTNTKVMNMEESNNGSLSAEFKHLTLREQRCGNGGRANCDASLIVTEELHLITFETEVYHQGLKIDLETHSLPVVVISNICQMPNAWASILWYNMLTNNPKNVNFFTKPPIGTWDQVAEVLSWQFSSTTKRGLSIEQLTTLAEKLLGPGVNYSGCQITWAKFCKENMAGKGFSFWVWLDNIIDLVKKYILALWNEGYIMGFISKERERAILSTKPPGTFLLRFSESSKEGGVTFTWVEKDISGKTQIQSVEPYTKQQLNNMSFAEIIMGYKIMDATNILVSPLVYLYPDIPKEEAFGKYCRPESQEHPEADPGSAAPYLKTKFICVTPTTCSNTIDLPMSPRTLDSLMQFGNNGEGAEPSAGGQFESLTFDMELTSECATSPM

| Structure (SMILES) | inhibition [1] | inhibition [2] | inhibition [3] |
| --- | --- | --- | --- |
| O=C1CC2CC(C(=O)Nc3ccc(C(F)(F)F)cc3)c3ccccc3C2=NN1 (single isomer, unassigned; (+)-1) | 9% | 35% | < 5% |
| O=C1CC2CC(C(=O)Nc3ccc(C(F)(F)F)cc3)c3ccccc3C2=NN1 (racemic; 2) | -6% | 3% | – |
| O=C1CC2CC(C(=O)Nc3ccc(C(F)(F)F)cc3)c3ccccc3C2=NN1 (single isomer, unassigned; (-)-1) | 9% | 14% | – |
| O=C(Nc1ccc(C(F)(F)F)cc1)C1Cc2cc(=O)[nH]nc2-c2ccccc21 (stereo in doubt; (+)-3a) | -2% | 24% | – |
| O=C(Nc1ccc(C(F)(F)F)cc1)C1Cc2cc(=O)[nH]nc2-c2ccccc21 (single isomer, unassigned; (-)) | 2% | 30% | – |
| O=C1CC2CC(C(=O)Nc3ccc(C(F)(F)F)cc3)c3ccccc3C2=NN1 (racemic; 1) | -3% | 6% | – |
| C[C@H]1COC2=C1C(=O)C(=O)c1c2ccc2c1CCCC2(C)C | 78% | 85% | – |
| O=C1CC2CC(C(=O)Nc3ccc(C(F)(F)F)cc3)c3ccccc3C2=NN1 (single isomer, unassigned; (-)-2b) | 1% | 16% | – |
| O=C(Nc1ccc(C(F)(F)F)cc1)C1Cc2cc(=O)[nH]nc2-c2ccccc21 (racemic) | 2% | 7% | – |
| O=C1CC2CC(C(=O)Nc3ccc(C(F)(F)F)cc3)c3ccccc3C2=NN1 (single isomer, unassigned; (+)-2a) | -8% | 12% | – |
